Laboratory results: patent publication US10280170B2, “Substituted 4,5,6,7-tetrahydro-pyrazolo[1,5-a]pyrazine derivatives and 5,6,7,8-tetrahydro-4H-pyrazolo[1,5-a][1,4]diazepine derivatives as Ros1 inhibitors” (Janssen Pharmaceutica NV, priority 2014, dated 2019)

How the values were obtained:
[1] = target: T1, Ba/F3 cells containing Ros1 wild-type protein (Homo sapiens, UniProt P08922, cells depend on it, form not given); assay: Ba/F3-Ros1 cell proliferation assay, wild-type Ros1; assay type: cell-based, murine; conditions: without IL-3
T1 construct: The background only speaks of 'a number of different unrelated proteins' and names SLC34A2-ROS1 for HCC78 cells
Outline: (§1)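 Alamar Blue read-out (resazurin, ex. 540 nm, em. 590 nm, 4 h at 37 °C) after 24 h compound exposure of 20000 Ba/F3-Ros1 cells per well. Cells carry WT, gatekeeper L2026M or crizotinib-resistant G2032R Ros1; medium RPMI-1640, 10% FBS, 2 mM L-Glutamine.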

[2] = target: Ba/F3 cells containing Ros1 with a mutation at the gatekeeper residue (L2026M) (Homo sapiens, UniProt P08922, L2026M, cells depend on it, form not given); assay: Ba/F3-Ros1 cell proliferation assay, L2026M gatekeeper mutant; assay type: cell-based, murine; conditions: without IL-3
Outline: as §1

[3] = test system: HCC78 non-small cell lung cancer cells; assay: HCC78 cell proliferation assay; assay type: cell-based; conditions: Homo sapiens, HCC78, 96 h, read-out: HCC-78 PROL pEC50 (converted)
Outline: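 HCC78 NSCLC cells (~1000/well) in RPMI-1640 with 10% FBS were treated 24 h after seeding and exposed to compound for 4 days at 37 °C. Viability was read by MTT, with absorbance at 538 nm after DMSO/glycine solubilization.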

[4] = test system: Ba/F3 cells containing Ros1 wild-type protein + IL-3; assay: Ba/F3-Ros1 cell proliferation counter-screen, wild-type protein in the presence of 10 ng/ml murine IL-3; assay type: cell-based; conditions: Mus musculus, BaF3, 24 h, read-out: BaF3-ROS1 + IL3 pIC50 (converted)
Outline: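 Compounds were dispensed from DMSO into plates, and 20000 Ba/F3 cells carrying wild-type Ros1 were added in phenol red-free RPMI-1640 with 10% FBS plus 10 ng/ml murine IL-3. After 24 h at 37 °C, Alamar Blue was added for 4 h and fluorescence recorded.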

Chain of Ba/F3 cells containing Ros1 with a mutation at the gatekeeper residue (L2026M) (P08922 whole entry L2026M, form open): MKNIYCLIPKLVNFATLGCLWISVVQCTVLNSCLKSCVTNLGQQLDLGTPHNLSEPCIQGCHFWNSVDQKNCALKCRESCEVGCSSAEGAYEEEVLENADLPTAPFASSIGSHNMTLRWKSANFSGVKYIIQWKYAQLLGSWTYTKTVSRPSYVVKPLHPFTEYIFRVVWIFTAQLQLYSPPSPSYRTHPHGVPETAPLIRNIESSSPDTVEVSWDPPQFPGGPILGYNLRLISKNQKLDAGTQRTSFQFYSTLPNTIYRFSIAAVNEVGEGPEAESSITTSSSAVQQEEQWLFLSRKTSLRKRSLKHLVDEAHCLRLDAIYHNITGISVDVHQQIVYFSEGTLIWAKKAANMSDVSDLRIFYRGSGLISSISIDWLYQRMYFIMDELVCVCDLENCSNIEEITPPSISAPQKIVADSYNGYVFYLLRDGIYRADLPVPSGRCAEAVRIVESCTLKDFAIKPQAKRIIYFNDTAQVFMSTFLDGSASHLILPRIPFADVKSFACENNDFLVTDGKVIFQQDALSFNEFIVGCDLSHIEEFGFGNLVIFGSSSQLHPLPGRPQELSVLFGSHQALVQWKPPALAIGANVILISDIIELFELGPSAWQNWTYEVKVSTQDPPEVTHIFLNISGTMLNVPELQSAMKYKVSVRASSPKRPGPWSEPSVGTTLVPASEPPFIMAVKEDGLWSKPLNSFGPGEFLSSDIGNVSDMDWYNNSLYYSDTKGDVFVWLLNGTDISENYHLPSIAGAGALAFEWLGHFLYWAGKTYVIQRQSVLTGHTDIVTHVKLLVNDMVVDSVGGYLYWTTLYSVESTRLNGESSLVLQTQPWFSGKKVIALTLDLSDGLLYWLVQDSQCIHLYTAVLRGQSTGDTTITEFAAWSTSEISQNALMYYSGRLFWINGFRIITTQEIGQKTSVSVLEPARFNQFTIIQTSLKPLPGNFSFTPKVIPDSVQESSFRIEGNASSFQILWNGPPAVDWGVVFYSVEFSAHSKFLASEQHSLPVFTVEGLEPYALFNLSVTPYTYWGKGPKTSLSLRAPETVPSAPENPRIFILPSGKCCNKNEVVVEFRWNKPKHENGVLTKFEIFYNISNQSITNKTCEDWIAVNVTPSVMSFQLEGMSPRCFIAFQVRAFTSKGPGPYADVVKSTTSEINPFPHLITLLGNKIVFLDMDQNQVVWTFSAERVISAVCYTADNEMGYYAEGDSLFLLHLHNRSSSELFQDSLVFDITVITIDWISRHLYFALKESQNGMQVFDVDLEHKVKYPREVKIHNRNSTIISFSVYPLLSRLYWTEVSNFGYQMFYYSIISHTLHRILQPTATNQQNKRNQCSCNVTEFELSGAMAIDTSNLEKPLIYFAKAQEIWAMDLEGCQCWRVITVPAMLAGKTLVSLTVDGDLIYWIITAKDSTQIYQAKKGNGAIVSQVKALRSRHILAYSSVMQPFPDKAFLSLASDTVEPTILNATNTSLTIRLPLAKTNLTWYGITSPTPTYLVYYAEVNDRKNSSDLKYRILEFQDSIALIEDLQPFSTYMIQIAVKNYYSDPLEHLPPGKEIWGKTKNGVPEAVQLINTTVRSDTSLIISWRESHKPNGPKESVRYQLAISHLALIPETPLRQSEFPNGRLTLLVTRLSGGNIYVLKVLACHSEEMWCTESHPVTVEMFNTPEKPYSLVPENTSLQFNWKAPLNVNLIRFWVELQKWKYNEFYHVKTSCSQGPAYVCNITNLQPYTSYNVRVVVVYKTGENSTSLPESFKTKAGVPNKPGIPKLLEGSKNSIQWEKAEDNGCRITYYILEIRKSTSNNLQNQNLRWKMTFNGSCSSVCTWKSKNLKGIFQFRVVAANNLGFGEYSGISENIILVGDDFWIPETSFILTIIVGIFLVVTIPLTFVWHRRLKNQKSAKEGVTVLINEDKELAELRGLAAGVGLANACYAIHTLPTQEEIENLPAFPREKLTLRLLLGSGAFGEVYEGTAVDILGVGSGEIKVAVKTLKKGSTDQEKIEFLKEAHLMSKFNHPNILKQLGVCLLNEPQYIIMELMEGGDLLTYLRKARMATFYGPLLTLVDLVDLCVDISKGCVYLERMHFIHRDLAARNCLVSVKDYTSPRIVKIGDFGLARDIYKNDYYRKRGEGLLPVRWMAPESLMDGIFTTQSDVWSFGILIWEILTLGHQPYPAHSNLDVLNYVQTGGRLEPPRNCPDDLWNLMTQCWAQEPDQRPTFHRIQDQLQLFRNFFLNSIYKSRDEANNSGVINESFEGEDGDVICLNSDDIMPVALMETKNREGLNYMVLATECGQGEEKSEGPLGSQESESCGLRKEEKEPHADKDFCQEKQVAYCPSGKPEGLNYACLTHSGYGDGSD
T1 sequence (P08922 whole entry, stated change not applied): as the sequence (P08922 whole entry L2026M, form open) above, with M2026L counted along it

Structure (SMILES) | BaF3-ROS1-IL3 pIC50 [1] | Ba/F3 Ros1 L2026M (-IL-3) pIC50 [2] | EC50 [3] | CC50 [4] | melting point
CC(C)c1ccc(COc2ccc(-c3c(-c4ccncc4)nn4c3C(=O)NCC4)cc2)cc1 [Compound 1] | 7.6 | 7.3 | 0.126 µM | > 10 µM | 
CC(C)c1ccc(COc2ccc(-c3c(-c4ccncc4)nn4c3C(=O)N(CCO)CC4)cc2)cc1 [Compound 2] | 7.6 | 7.4 | 0.126 µM | > 10 µM | 181 °C
